US20260209215A1, “GLYCINE DERIVATIVES WITH P2X4 RECEPTOR-BLOCKING ACTIVITY AS DIAGNOSTICS AND FOR THE TREATMENT OF PAIN, INFLAMMATION, CANCER, AND OTHER P2X4 RECEPTOR-RELATED DISEASES” (RHEINISCHE-FRIEDRICH-WILHELMS-UNIVERSITÄT BONN, priority 2022, published 2026)

Target: T1, P2X4 receptor (Homo sapiens, UniProt Q99571)
T1 construct: expressed in transfected cells; host or cells: 1321N1 astrocytoma cells, retroviral vector pQCXIN, G418 selection, monoclones
T1 sequence (Q99571 1-388): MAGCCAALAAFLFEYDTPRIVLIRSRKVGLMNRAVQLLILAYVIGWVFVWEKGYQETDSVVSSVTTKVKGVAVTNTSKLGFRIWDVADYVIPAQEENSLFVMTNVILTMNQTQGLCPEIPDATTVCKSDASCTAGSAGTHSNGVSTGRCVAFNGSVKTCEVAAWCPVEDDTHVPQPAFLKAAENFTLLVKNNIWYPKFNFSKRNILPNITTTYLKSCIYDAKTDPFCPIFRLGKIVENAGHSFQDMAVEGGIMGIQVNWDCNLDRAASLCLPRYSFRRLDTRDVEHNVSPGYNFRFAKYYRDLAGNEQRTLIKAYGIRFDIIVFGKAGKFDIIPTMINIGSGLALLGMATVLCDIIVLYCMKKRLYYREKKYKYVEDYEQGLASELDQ
Experiment: Measurement of Ca2+ influx in transfected 1321N1 astrocytoma cells (P2X4 inhibitory potency)
Type: cell-based
Conditions: agonist-mediated Ca2+ influx, FLUO-4, 1321N1 astrocytoma cells; antagonists added 30 min before agonist
Summary of the method: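 Stable 1321N1 astrocytoma cells expressing human P2X4, loaded with FLUO-4 AM (2.4 μM) in HBSS/HEPES pH 7.3 for 1 h at 23 °C. Antagonists added 30 min before agonist; fluorescence at 520 nm recorded for 30 s. Compounds tested at 7–8 concentrations spanning three log units.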

Row | IC50 | Compound
1 | 0.1 to 19 nM | Cc1nsc(-c2ccc(C)c(NCC(=O)N3CCc4c3cccc4[C@](C)(O)CO)c2)n1 [Example 65, 1-(4-(1,2-dihydroxypropan-2-yl)indolin-1-yl)-2-((2-methyl-5-(3-methyl-1,2,4-thiadiazol-5-yl)phenyl)amino)ethan-1-one]
2 | 20 to 39 nM | CCc1nsc(-c2ccc(C)c(NCC(=O)N3CCc4c(N5CC(O)C5)cccc43)c2)n1 [Example 66, 2-((5-(3-ethyl-1,2,4-thiadiazol-5-yl)-2-methylphenyl)amino)-1-(4-(3-hydroxyazetidin-1-yl)indolin-1-yl)ethan-1-one]
3 | 20 to 39 nM | Cc1nsc(-c2ccc(C)c(NCC(=O)N3CCc4c3cccc4C(C)(C)OC(=O)C(O)CO)c2)n1 (stereo not shown) [Example 67, 2-(1-((2-methyl-5-(3-methyl-1,2,4-thiadiazol-5-yl)phenyl)glycyl)indolin-4-yl)propan-2-yl 2,3-dihydroxy-propanoate]
4 | 20 to 39 nM | Cc1nsc(-c2ccc(C)c(NCC(=O)N3CCc4c(N5CCC(O)C5)cccc43)c2)n1 (stereo not shown) [Example 68, 1-(4-(3-hydroxypyrrolidin-1-yl)indolin-1-yl)-2-((2-methyl-5-(3-methyl-1,2,4-thiadiazol-5-yl)phenyl)amino)ethan-1-one]
5 | > 100 nM | Cc1nsc(-c2ccc(C)c(NCC(=O)N3CCc4c(CS(C)(=N)=O)cccc43)c2)n1 (stereo not shown) [Example 69, imino(methyl)((1-((2-methyl-5-(3-methyl-1,2,4-thiadiazol-5-yl)phenyl)glycyl)indolin-4-yl)methyl)sulfanone]
6 | 0.1 to 19 nM | Cc1nsc(-c2ccc(C)c(NCC(=O)N3CCc4c(-c5cc[nH]n5)cccc43)c2)n1 [Example 70, 1-(4-(1H-pyrazol-3-yl)indolin-1-yl)-2-((2-methyl-5-(3-methyl-1,2,4-thiadiazol-5-yl)phenyl)amino)ethan-1-one]
7 | 0.1 to 19 nM | CCc1nsc(-c2ccc(F)c(NCC(=O)N3CCc4c(N5CCC(O)C5)cccc43)c2)n1 (stereo not shown) [Example 71, 2-((5-(3-ethyl-1,2,4-thiadiazol-5-yl)-2-fluorophenyl)amino)-1-(4-(3-hydroxypyrrolidin-1-yl)indolin-1-yl)ethan-1-one]
8 | 20 to 39 nM | CCc1nsc(-c2ccc(C)c(NCC(=O)N3CCc4c(N5CCNCC5)cccc43)c2)n1 [Example 72, 2-((5-(3-ethyl-1,2,4-thiadiazol-5-yl)-2-methylphenyl)amino)-1-(4-(piperazin-1-yl)indolin-1-yl)ethan-1-one]
9 | 40 to 69 nM | Cc1ccc(-c2ccc(C)c(NCC(=O)N3CCc4c(-c5c[nH]cn5)cccc43)c2)o1 [Example 73, 1-(4-(1H-imidazol-4-yl)indolin-1-yl)-2-((2-methyl-5-(5-methylfuran-2-yl)phenyl)amino)ethan-1-one]
10 | 20 to 39 nM | Cc1nsc(-c2ccc(C)c(NCC(=O)N3CCc4c(N)cccc43)c2)n1 [Example 74, 1-(4-aminoindolin-1-yl)-2-((2-methyl-5-(3-methyl-1,2,4-thiadiazol-5-yl)phenyl)amino)ethan-1-one]
11 | 70 to 99 nM | Cc1noc(-c2ccc(F)c(NCC(=O)N3CCc4c(N)cccc43)c2)n1 [Example 75, 1-(4-aminoindolin-1-yl)-2-((2-fluoro-5-(3-methyl-1,2,4-oxadiazol-5-yl)phenyl)-amino)ethan-1-one]
12 | 0.1 to 19 nM | CC(=O)Nc1cccc2c1CCN2C(=O)CNc1cc(-c2nc(C)ns2)ccc1C [Example 76, N-(1-((2-methyl-5-(3-methyl-1,2,4-thiadiazol-5-yl)phenyl)-glycyl)indolin-4-yl) acetamide]
13 | 20 to 39 nM | CC(=O)N(c1cccc2c1CCN2C(=O)CNc1cc(-c2nc(C)ns2)ccc1C)S(C)(=O)=O [Example 77, N-(1-((2-methyl-5-(3-methyl-1,2,4-thiadiazol-5-yl)phenyl)-glycyl)indolin-4-yl)-N-(methylsulfonyl)acetamide]
14 | 0.1 to 19 nM | Cc1nsc(-c2ccc(C)c(NCC(=O)N3CCc4c3cccc4N(S(C)(=O)=O)S(C)(=O)=O)c2)n1 [Example 78, N-(1-((2-methyl-5-(3-methyl-1,2,4-thiadiazol-5-yl)phenyl)glycyl)indolin-4-yl)-N-(methylsulfonyl) methanesulfonamide]
15 | 0.1 to 19 nM | Cc1nsc(-c2ccc(C)c(NCC(=O)N3CCc4c3cccc4N3C(=O)C=CC3=O)c2)n1 [Example 79, 1-(1-((2-methyl-5-(3-methyl-1,2,4-thiadiazol-5-yl)phenyl)-glycyl)indolin-4-yl)-1H-pyrrole-2,5-dione]
16 | 0.1 to 19 nM | Cc1nsc(-c2ccc(C)c(NCC(=O)N3CCc4c3cccc4N3C(=O)CC(N)C3=O)c2)n1 (stereo not shown) [Example 80, 3-amino-1-(1-((2-methyl-5-(3-methyl-1,2,4-thiadiazol-5-yl)phenyl)glycyl)indolin-4-yl) pyrrolidine-2,5-dione]
17 | 0.1 to 19 nM | Cc1nsc(-c2ccc(C)c(NCC(=O)N3CCc4c(NC(=O)[C@H]5CCCN5)cccc43)c2)n1 [Example 81, (R)-N-(1-((2-methyl-5-(3-methyl-1,2,4-thiadiazol-5-yl)phenyl)glycyl)indolin-4-yl) pyrrolidine-2-carboxamide]
18 | 70 to 99 nM | Cc1nsc(-c2ccc(C)c(NCC(=O)N3CCc4c(NC(=O)[C@H](O)[C@@H](O)C(=O)O)cccc43)c2)n1 [Example 82, (2R,3R)-2,3-dihydroxy-4-((1-((2-methyl-5-(3-methyl-1,2,4-thiadiazol-5-yl)phenyl)-glycyl)indolin-4-yl)amino)-4-oxobutanoic acid]
19 | 20 to 39 nM | Cc1noc(-c2ccc(C)c(NCC(=O)N3CCc4c3cccc4N3C(=O)CNC3=O)c2)n1 [Example 83, 3-(1-((2-methyl-5-(3-methyl-1,2,4-oxadiazol-5-yl)phenyl)glycyl)indolin-4-yl)imidazolidine-2,4-dione]
20 | 0.1 to 19 nM | CCc1nsc(-c2ccc(C)c(NCC(=O)N3CCc4c(O)cccc43)c2)n1 [Example 84, 2-((5-(3-ethyl-1,2,4-thiadiazol-5-yl)-2-methylphenyl)amino)-1-(4-hydroxyindolin-1-yl) ethan-1-one]
21 | 0.1 to 19 nM | Cc1nsc(-c2ccc(C)c(NCC(=O)N3CCc4c(O)cccc43)c2)n1 [Example 85, 1-(4-hydroxyindolin-1-yl)-2-((2-methyl-5-(3-methyl-1,2,4-thiadiazol-5-yl)phenyl)-amino)ethan-1-one]
22 | 40 to 69 nM | Cc1noc(-c2ccc(C)c(NCC(=O)N3CCc4c(O)cccc43)c2)n1 [Example 86, 1-(4-hydroxyindolin-1-yl)-2-((2-methyl-5-(3-methyl-1,2,4-oxadiazol-5-yl)phenyl)amino)-ethan-1-one]
23 | 40 to 69 nM | CCc1nsc(-c2ccc(C)c(NCC(=O)N3CCc4c(OC(F)(F)C(=O)O)cccc43)c2)n1 [Example 87, 2-((1-((5-(3-ethyl-1,2,4-thiadiazol-5-yl)-2-methyl-phenyl)glycyl)indolin-4-yl)oxy)-2,2-difluoro-acetic acid]
24 | 40 to 69 nM | Cc1nsc(-c2ccc(C)c(NCC(=O)N3CCc4c(C(N)C(F)(F)F)cccc43)c2)n1 (stereo not shown) [Example 88, 1-(4-(1-amino-2,2,2-trifluoroethyl)indolin-1-yl)-2-((2-methyl-5-(3-methyl-1,2,4-thiadiazol-5-yl)phenyl)-amino)ethan-1-one]
25 | 70 to 99 nM | Cc1noc(-c2ccc(C)c(NCC(=O)N3CCc4c(C(N)C(F)(F)F)cccc43)c2)n1 (stereo not shown) [Example 89, 1-(4-(1-amino-2,2,2-trifluoroethyl)indolin-1-yl)-2-((2-methyl-5-(3-methyl-1,2,4-oxadiazol-5-yl)phenyl)-amino)ethan-1-one]
